Tests used:
[1] = target: T1, Nitric oxide synthase, inducible (Homo sapiens, UniProt P35228); assay: Activity of iNOS assessed as increase in Kcat by indirect spectral assay relative to N'G-hydroxy-L-arginine
[2] = target: T1, Nitric oxide synthase, inducible; assay: Binding affinity to iNOS with heme domain construct assessed as spectral binding constant by spectral assay

T1 sequence (P35228 whole entry, the tested form may be a part): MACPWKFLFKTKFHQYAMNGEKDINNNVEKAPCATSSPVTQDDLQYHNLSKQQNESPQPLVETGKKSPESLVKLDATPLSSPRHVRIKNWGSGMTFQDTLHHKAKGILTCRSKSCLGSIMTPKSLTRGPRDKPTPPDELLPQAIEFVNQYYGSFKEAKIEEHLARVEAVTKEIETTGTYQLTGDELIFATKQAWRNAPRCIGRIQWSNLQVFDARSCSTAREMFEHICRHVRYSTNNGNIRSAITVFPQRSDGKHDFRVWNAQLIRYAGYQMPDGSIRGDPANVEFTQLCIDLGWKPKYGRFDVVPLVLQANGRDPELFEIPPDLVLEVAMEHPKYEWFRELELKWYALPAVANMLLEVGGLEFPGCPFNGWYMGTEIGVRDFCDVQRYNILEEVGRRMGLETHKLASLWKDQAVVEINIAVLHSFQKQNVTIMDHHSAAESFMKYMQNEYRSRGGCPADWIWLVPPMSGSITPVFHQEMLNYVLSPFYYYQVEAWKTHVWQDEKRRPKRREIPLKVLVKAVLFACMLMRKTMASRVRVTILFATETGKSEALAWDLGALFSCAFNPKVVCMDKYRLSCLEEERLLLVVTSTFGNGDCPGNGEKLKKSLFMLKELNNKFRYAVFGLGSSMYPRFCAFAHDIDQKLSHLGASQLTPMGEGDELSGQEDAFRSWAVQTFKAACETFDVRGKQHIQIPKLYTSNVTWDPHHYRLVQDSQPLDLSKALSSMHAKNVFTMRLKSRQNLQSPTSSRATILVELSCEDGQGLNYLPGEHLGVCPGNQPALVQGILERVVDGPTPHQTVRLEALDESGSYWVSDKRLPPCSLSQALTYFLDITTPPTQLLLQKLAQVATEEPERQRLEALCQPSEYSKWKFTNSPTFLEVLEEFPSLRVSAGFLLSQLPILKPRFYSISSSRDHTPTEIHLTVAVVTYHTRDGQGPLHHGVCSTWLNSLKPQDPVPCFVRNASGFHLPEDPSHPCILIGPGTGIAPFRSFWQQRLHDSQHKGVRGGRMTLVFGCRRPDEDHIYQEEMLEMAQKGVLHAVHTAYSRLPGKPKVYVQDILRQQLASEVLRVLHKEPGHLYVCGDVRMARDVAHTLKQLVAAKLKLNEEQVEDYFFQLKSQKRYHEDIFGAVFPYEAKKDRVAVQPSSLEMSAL

Activity [1]	Kd [2]	Structure (SMILES)
10%	3100 µM	N=C(N)NCC(F)(F)C[C@H](N)C(=O)O
30%	116 µM	N/C(=N\O)NCC(F)(F)C[C@H](N)C(=O)O
–	5.1 µM	N=C(NO)NCCC[C@H](N)C(=O)O

Reference: ChEMBL document CHEMBL1153920, “4,4-Difluorinated analogues of l-arginine and N(G)-hydroxy-l-arginine as mechanistic probes for nitric oxide synthase” (Bioorg Med Chem Lett, 2009)
